# Entries after “also recorded” stand apart in the source; their conditions may differ. Read-outs that look alike come from different tables or passages of the source.
# Columns and labels:
# [1] = system: human TASK-3 channels; settings: cited from earlier work
# [2] = system: human TASK-3 channels; experiment: IonWorks Quattro electrophysiology assay, HEK293 (Coburn et al.); settings: TASK-3, from reported IC50
# [3] = system: TASK-1; set-up: method as in PMID 30803485; settings: cited from earlier work
# [4] = Table S2, TASK-3, ref 16 (supplement ref 1)
# [5] = Table S3 reported activity, TASK-3
# [6] = Table 1, Figure 4B and text, TASK-3
SMILES,"IC50 [1, 4] [µM]",further results
CCOC(=O)C1CCN(c2ncnc3c2CN(S(=O)(=O)Cc2ccccc2)CC3)CC1 [Compound 11a],3.6 ± 0.4,–
CS(=O)(=O)C1CCN(c2ncnc3c2CN(C(=O)c2ccc(-c4ccccc4)cc2)CC3)CC1 [Compound 18],0.082 ± 0.005,"IC50 [1, 5]: 0.082 µM"
CCOC(=O)C1CCN(c2ncnc3c2CN(Cc2ccccc2)CC3)CC1 [Compound 9c],0.71 ± 0.08,–
CCOC(=O)C1CCN(c2ncnc3c2CN(C(=O)c2ccc(-c4ccccc4)cc2)CC3)CC1 [Compound 12f],0.074 ± 0.009,–
O=C(c1ccc(-c2ccccc2)cc1)N1CCc2ncnc(N3CCCC3)c2C1 [Compound 17b],–,"IC50 [1, 6]: 27 µM; inhibiting TASK-3 channels ([1]; potency range in words): micromolar range; fold lower affinity than PK-THPP [2]: ~1000 fold"
CCOC(=O)C1CCN(c2ncnc3c2CN(S(=O)(=O)c2ccc(Cl)cc2)CC3)CC1 [Compound 11b],3.9 ± 0.5,–
O=C(c1ccc(-c2ccccc2)cc1)N1CCc2ncnc(N3CCOCC3)c2C1 [Compound 17d],4.6 ± 1.1,–
CCOC(=O)C1CCN(c2ncnc3c2CN(C(=O)c2ccc(-c4ccccc4)cc2)C(C)(C)C3)CC1 [Compound 13b],0.65 ± 0.03,–
CCOC(=O)C1CCN(c2ncnc3c2CN(C(=O)c2ccc(C4CCCCC4)cc2)CC3)CC1 [Compound 12e],0.12 ± 0.01,–
CCOC(=O)C1CCN(c2ncnc3c2CN(C(=O)c2ccc(Br)cc2)CC3)CC1 [Compound 12c],0.43 ± 0.06,–
CCOC(=O)C1CCN(c2ncnc3c2CN(S(=O)(=O)c2cccc(Cl)c2)CC3)CC1 [Compound 11c],0.7 ± 0.07,–
CC(C)(O)C1CCN(c2ncnc3c2CN(C(=O)c2ccc(-c4ccccc4)cc2)CC3)CC1 [Compound 21],0.05 ± 0.006,"IC50 ([1]; TASK-3): 0.05 µM; IC50 [1, 6]: 0.05 µM; IC50 [1, 5]: 0.05 µM"
CCOC(=O)C1CCN(c2ncnc3c2CN(C(=O)c2ccccc2)CC3)CC1 [Compound 12a],3.6 ± 0.77,–
CCOC(=O)C1CCN(c2ncnc3c2CN(C(=O)c2ccc(OC)cc2)CC3)CC1 [Compound 12b],1.6 ± 0.18,–
CCOC(=O)C1CCN(c2ncnc3c2CN(C(=O)Nc2ccc(-c4ccccc4)cc2)CC3)CC1 [Compound 10c],9.6 ± 0.5,–
CCOC(=O)C1CCN(c2ncnc3c2CN(C(=O)c2ccc(-c4ccccc4)cc2)CC3(C)C)CC1 [Compound 13a],0.57 ± 0.03,–
CCC(=O)C1CCN(c2ncnc3c2CN(C(=O)c2ccc(-c4ccccc4)cc2)CC3)CC1 [Compound 24],0.08 ± 0.009,"IC50 [1, 5]: 0.08 µM"
CCOC(=O)C1CCN(c2ncnc3c2CN(C(=O)NCc2ccccc2)CC3)CC1 [Compound 10b],3.4 ± 0.4,–
CCOC(=O)C1CCN(c2ncnc3c2CN(C(=O)c2ccc(C)cc2)CC3)CC1 [Compound 12d],0.31 ± 0.08,–
O=C(c1ccc(-c2ccccc2)cc1)N1CCc2ncnc(N3CC[C@H]4OCCC[C@@H]4C3)c2C1 [Compound 20b],0.07 ± 0.007,"IC50 ([1]; TASK-3): 0.07 µM; IC50 [1, 6]: 0.07 µM; IC50 [1, 5]: 0.07 µM"
CCCC(=O)C1CCN(c2ncnc3c2CN(C(=O)c2ccc(-c4ccccc4)cc2)CC3)CC1 [PK-THPP],–,potency on TASK-1 relative to TASK-3 [3]: almost nine-times less potency; also recorded: almost nine-fold less potency
COC1CCN(c2ncnc3c2CN(C(=O)c2ccc(-c4ccccc4)cc2)CC3)CC1 [Compound 19],0.135 ± 0.037,"IC50 [1, 5]: 0.135 µM"
CCOC(=O)C1CCN(c2ncnc3c2CN(S(=O)(=O)c2ccccc2Cl)CC3)CC1 [Compound 11d],0.9 ± 0.1,–
O=C(c1ccc(-c2ccccc2)cc1)N1CCc2ncnc(N3CCS(=O)(=O)CC3)c2C1 [Compound 17e],0.57 ± 0.06,"IC50 [1, 5]: 0.57 µM"
O=C(c1ccc(-c2ccccc2)cc1)N1CCc2ncnc(N3CCCCC3)c2C1 [Compound 17c],4 ± 1.1,–
CCc1noc(C2CCN(c3ncnc4c3CN(C(=O)c3ccc(-c5ccccc5)cc3)CC4)CC2)n1 [Compound 22],0.07 ± 0.01,"IC50 ([1]; TASK-3): 0.07 µM; IC50 [1, 6]: 0.07 µM; IC50 [1, 5]: 0.07 µM"
CCOC(=O)C1CCN(c2nc(C)nc3c2CN(C(=O)c2ccc(-c4ccccc4)cc2)CC3)CC1 [Compound 14b],0.26 ± 0.05,–

# — paper PMC6539479
